{"source": "patent US10273202B2", "about": "“Nitroxyl progenitor compounds and methods of use” (The Johns Hopkins University, priority 2004, dated 2019)", "origin": "cited, not measured here", "system": "dog with congestive heart failure", "details": "CHF dogs", "key": {"[1]": {"details": "5-10 μg/kg/min for 15 min i.v., n=8"}}, "note": "Read-outs that look alike come from different tables or passages of the source.", "data": [{"smiles": "[Na+].[Na+].[O-][N+]([O-])=NO", "note": "[AS, Angeli's salt]", "values": [{"measurement": "Ees, % from baseline", "setting": "[1]", "result": "+46 ± 8%"}, {"measurement": "LVEDD, % from baseline", "setting": "[1]", "result": "−3.8 ± 1", "unit": "%"}, {"measurement": "LVEDP, % from baseline", "setting": "[1]", "result": "−50 ± 12", "unit": "%"}, {"measurement": "LVESD, % from baseline", "setting": "[1]", "result": "−3.9 ± 1", "unit": "%"}, {"measurement": "LVESP, % from baseline", "setting": "[1]", "result": "−13 ± 2", "unit": "%"}, {"measurement": "RT, % from baseline", "setting": "[1]", "result": "−12 ± 5", "unit": "%"}, {"measurement": "Tau, % from baseline", "setting": "[1]", "result": "−18 ± 2", "unit": "%"}, {"measurement": "Ees, % from baseline", "setting": "5-10 μg/kg/min, + volume", "result": "+37 ± 5%"}, {"measurement": "LVEDD, % from baseline", "setting": "5-10 μg/kg/min, + volume", "result": "−1.7 ± 1", "unit": "%"}, {"measurement": "LVEDP, % from baseline", "setting": "5-10 μg/kg/min, + volume", "result": "−34 ± 19", "unit": "%"}, {"measurement": "LVESD, % from baseline", "setting": "5-10 μg/kg/min, + volume", "result": "−3.0 ± 0.5", "unit": "%"}, {"measurement": "LVESP, % from baseline", "setting": "5-10 μg/kg/min, + volume", "result": "−9.9 ± 2", "unit": "%"}, {"measurement": "RT, % from baseline", "setting": "5-10 μg/kg/min, + volume", "result": "−14 ± 4", "unit": "%"}, {"measurement": "Tau, % from baseline", "setting": "5-10 μg/kg/min, + volume", "result": "−15 ± 3", "unit": "%"}]}]}
